According to patent US11999727B2 (Tango Therapeutics, Inc., priority 2020, dated 2024):

Columns and labels:
[1] = test system: HAP1 MTAP-intact cell line; assay: SDMA in-cell western assay, HAP1 MTAP-intact; type: cell-based; details: Homo sapiens, HAP1, SDMA in-cell western, HAP1 MTAP-intact; read-out: MTAP HAP1 intact IC50
How it was run: (§1)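 IC50 values come from SDMA signal quantified by in-cell western in two HAP1 lines, one with native MTAP levels and one lacking MTAP.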

PRMT5 [2] = target: T1, PRMT5 (Homo sapiens, UniProt O14744); assay: PRMT5 biochemical IC50 assay with SAM as cofactor; details: PRMT5, SAM as cofactor; read-out: SAM IC50
T1 construct: purchased Viva (custom protein)

PRMT5 [3] = target: T1, PRMT5; assay: PRMT5 biochemical IC50 assay with no cofactor; details: PRMT5, no cofactor
Excerpt: Table 1 indicates IC50 values (μM) against PRMT5 for exemplary compounds in the presence of SAM as cofactor, with no cofactor, and with MTA as cofactor, respectively (columns 4-6). […] Ki values can be calculated from the IC50 values as described in the Examples section. As detailed in the Examples section, for the assay performed in the presence of SAM, IC50=Ki×1.5 (Ki=IC50/1.5).

[4] = test system: HAP1 MTAP-deleted cell line; assay: SDMA in-cell western assay, HAP1 MTAP-deleted; type: cell-based; details: for IC50: Homo sapiens, HAP1, SDMA in-cell western, HAP1 MTAP-deleted; for MTAP intact/deleted ratio: IC50 ratio HAP1 MTAP-intact / HAP1 MTAP-deleted, SDMA in-cell western
How it was run: as §1

PRMT5 [5] = target: T1, PRMT5; assay: PRMT5 biochemical IC50 assay with MTA as cofactor; details: PRMT5, MTA as cofactor; read-out: MTA IC50
[6] = test system: HAP1 MTAP-deleted cell line; assay: Viability assay, MTAP-deleted cell line; type: cell-based; details: Homo sapiens, HAP1, viability assay, read-out: HAP1 MTAP deleted viability
Excerpt: Table 1 additionally indicates IC50 values in a viability assay for the MTAP-deleted cell line (column 10), indicating the effect of treatment with compound on cell survival.

[7] = read-out: No Cofactor/ rel IC50
[8] = read-out: HAP 1 MTAP deleted IC50
[9] = read-out: HAP1 MTAP deleted IC50

T1 sequence (O14744 whole entry): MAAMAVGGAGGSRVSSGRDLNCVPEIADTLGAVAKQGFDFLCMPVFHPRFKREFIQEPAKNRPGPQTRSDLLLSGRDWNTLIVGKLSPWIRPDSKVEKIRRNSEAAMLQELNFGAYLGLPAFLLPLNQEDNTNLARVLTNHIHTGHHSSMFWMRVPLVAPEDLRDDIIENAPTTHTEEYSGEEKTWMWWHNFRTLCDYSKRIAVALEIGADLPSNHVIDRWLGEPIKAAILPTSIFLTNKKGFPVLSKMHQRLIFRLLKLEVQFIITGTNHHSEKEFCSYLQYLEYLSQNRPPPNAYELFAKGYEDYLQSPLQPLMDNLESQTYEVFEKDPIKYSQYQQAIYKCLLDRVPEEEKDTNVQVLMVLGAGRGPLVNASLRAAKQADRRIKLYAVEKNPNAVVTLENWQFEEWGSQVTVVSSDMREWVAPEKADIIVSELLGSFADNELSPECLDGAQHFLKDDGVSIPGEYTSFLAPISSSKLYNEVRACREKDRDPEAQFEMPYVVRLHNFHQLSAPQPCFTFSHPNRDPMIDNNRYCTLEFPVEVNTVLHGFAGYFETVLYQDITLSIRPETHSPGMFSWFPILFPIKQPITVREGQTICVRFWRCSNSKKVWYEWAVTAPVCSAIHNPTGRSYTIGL
T1 sequence (Q9BQA1 whole entry partner): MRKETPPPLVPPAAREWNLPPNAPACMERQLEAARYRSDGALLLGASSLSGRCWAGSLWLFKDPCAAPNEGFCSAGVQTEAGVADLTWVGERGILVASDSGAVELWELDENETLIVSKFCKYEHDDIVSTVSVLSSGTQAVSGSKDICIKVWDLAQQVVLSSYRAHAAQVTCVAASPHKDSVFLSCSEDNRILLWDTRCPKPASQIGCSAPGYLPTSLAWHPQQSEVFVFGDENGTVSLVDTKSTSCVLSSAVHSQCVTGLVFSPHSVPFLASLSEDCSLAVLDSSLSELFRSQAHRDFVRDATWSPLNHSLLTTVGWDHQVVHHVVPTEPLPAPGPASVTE

| Compound | IC50 [1] | IC50 (PRMT5 [2]) | IC50 (PRMT5 [3]; [7]) | IC50 [4, 8] | MTAP intact/deleted ratio [4] | IC50 (PRMT5 [5]) | IC50 ([6]; MTAP-deleted cell line) | IC50 (PRMT5 [3]; read-out: No Cofactor/rel IC50) | IC50 [4, 9] | IC50 ([6]; HAP1 MTAP-deleted) |
| --- | --- | --- | --- | --- | --- | --- | --- | --- | --- | --- |
| Cc1cncc(NC(=O)C(=O)N2C[C@H](C)CC[C@H]2c2ccc3c(c2)CCCC3)c1 (racemic) [Compound 80, N-(5-methyl-3-pyridyl)-2-[(2S,5R)-5-methyl-2-tetralin-6-yl-1-piperidyl]-2-oxo-acetamide] | > 1 µM | > 0.5 µM | > 0.5 µM | > 1 µM | C (an IC50 ratio of less than 3 fold) | 0.05 to 0.5 µM | > 10 µM | – | – | – |
| Cc1cc(NC(=O)C(=O)N2C[C@H](C)CC[C@H]2c2ccc(-c3ccn[nH]3)cc2)cnc1N (racemic) [Compound 526, rac N-(6-amino-5-methyl-3-pyridyl)-2-[(2S,5R)-5-methyl-2-[4-(1H-pyrazol-5-yl)phenyl]-1-piperidyl]-2-oxo-acetamide] | 0.1 to 1 µM | 0.05 to 0.5 µM | – | – | A (an IC50 ratio greater than or equal to 10 fold) | 0.05 to 0.5 µM | < 1 µM | 0.05 to 0.5 µM | < 0.1 µM | – |
| Cc1cc(NC(=O)C(=O)N2C[C@H](C)CC[C@H]2c2ccc(F)c(F)c2)cnc1N (single isomer, unassigned) [Compound 458] | 0.1 to 1 µM | 0.05 to 0.5 µM | – | – | A (an IC50 ratio greater than or equal to 10 fold) | < 0.05 µM | 1 to 10 µM | < 0.05 µM | < 0.1 µM | – |
| COc1cc([C@@H]2CC[C@@H](C)CN2C(=O)C(=O)Nc2cncc(C(N)=O)c2)ccc1Cl (racemic) [Compound 114, rac-rac-5-{2-[(2R,5S)-2-(4-chloro-3-methoxyphenyl)-5-methylpiperidin-1-yl]-2-oxoacetamido}pyridine-3-carboxamide] | > 1 µM | 0.05 to 0.5 µM | 0.05 to 0.5 µM | < 0.1 µM | A (an IC50 ratio greater than or equal to 10 fold) | < 0.05 µM | > 10 µM | – | – | – |
| Cc1cc(NC(=O)C(=O)N2C[C@H](C)C[C@@H](C)[C@H]2c2ccccc2)cnc1N (single isomer, unassigned) [Compound 339] | > 1 µM | 0.05 to 0.5 µM | – | – | A (an IC50 ratio greater than or equal to 10 fold) | < 0.05 µM | > 10 µM | 0.05 to 0.5 µM | 0.1 to 1 µM | – |
| Cc1cc(NC(=O)C(=O)N2C[C@H](C)CC[C@H]2c2cccc(C(F)(F)F)c2)cnc1N (single isomer, unassigned) [Compound 496] | > 1 µM | 0.05 to 0.5 µM | – | – | A (an IC50 ratio greater than or equal to 10 fold) | < 0.05 µM | 1 to 10 µM | < 0.05 µM | < 0.1 µM | – |
| C[C@H]1CC[C@H](c2ccc3c(c2)C[C@H](C)O3)N(C(=O)C(=O)Nc2cncc(C(N)=O)c2)C1 (single isomer, unassigned) [Compound 376] | > 1 µM | > 0.5 µM | – | – | C (an IC50 ratio of less than 3 fold) | > 0.5 µM | > 10 µM | > 0.5 µM | > 1 µM | – |
| Cc1cc(NC(=O)C(=O)N2C[C@H]3CC[C@H](C3)[C@H]2c2cccs2)cnc1N (single isomer, unassigned) [Compound 134] | > 1 µM | > 0.5 µM | > 0.5 µM | > 1 µM | C (an IC50 ratio of less than 3 fold) | > 0.5 µM | > 10 µM | – | – | – |
| CNC(=O)N1CCC([C@@H]2CC[C@@H](C)CN2C(=O)C(=O)Nc2cnc(N)c(C)c2)CC1 (racemic) [Compound 781, 4-[(2R,5S)-1-[2-[(6-amino-5-methyl-3-pyridyl)amino]-2-oxo-acetyl]-5-methyl-2-piperidyl]-N-methyl-piperidine-1-carboxamide] | > 1 µM | 0.05 to 0.5 µM | – | – | A (an IC50 ratio greater than or equal to 10 fold) | 0.05 to 0.5 µM | – | 0.05 to 0.5 µM | < 0.1 µM | 1 to 10 µM |
